# Assay results reported in paper PMC11881906, “Development of xanthone derivatives as effective broad-spectrum antimicrobials: Disrupting cell wall and inhibiting DNA synthesis” (Science Advances, 2025).
# Where two headings read alike, the source gives them in different places.
# Assays:
# CCK-8 cytotoxicity assay = assay type: cell-based
# Procedure: Cytotoxicity of the compound tested was assessed by CCK-8 assays as previously described ([71]). […] Following a 24-hour incubation, 10 μl of CCK-8 reagent was added to each well and incubated for 1 hour. The absorbance at 450 nm was measured by a microplate reader. All measurements were repeated three times with duplicates each time.
# E. coli ATCC 25922 = assay: SYTOX Green uptake assay; assay type: cell-based, Escherichia coli; conditions: up to 8× MIC
# Procedure: The SYTOX Green uptake was measured to explore the inner membrane permeability. The overnight bacteria culture was centrifuged and resuspended in sterile PBS to obtain an OD600 of 0.2. SYTOX Green dye was added to a final concentration of 0.3 μM and incubated for 20 min without being exposed to the light. Fluorescence was measured at excitation and emission wavelengths of 504 and 523 nm, respectively. […] The changes in fluorescence intensity were continuously monitored for 1 hour. All measurements were repeated three times with duplicates each time.
# LPS = assay: Fluorescence-based binding assay; conditions: compound 1× MIC; LPS 0 to 2.5 μg/ml
# Procedure: Changes in the fluorescence emission spectrum or intensity were assessed for compound XT17 with and without the presence of targeted proteins. The fluorescent properties of compound XT17 (excitation wavelength of 350 nm and emission wavelength of 440 nm) were measured using a fluorescent plate reader upon binding to the targets. […] The changes in the emission from a constant concentration of fluorescent compound were monitored after adding increasing concentrations of LTA or LPS. All measurements were repeated three times with duplicates each time.
# [1] = Plasma pharmacokinetic study; assay type: in vivo, CD-1 mice; conditions: for Mean plasma concentration: LLOQ=10 ng/mL; for bioavailability: dose-normalised AUCINF, read-out: bioavailability (F)
# Procedure: Mouse plasma PK studies were performed at Shanghai Ruizhi Chemical Research Co. Ltd. All experiments related to animals were conducted in compliance with the ethical guidelines approved by the Institutional Animal Care and Use Committee (IACUC) of the Shanghai Ruizhi Chemical Research Co. Ltd. Male CD-1 mice (6 to 8 weeks) were treated with the corresponding dose of drugs formulated in 5% glucose solution (D5W) delivered via intravenous injection via tail vein, intraperitoneal injection, or subcutaneous injection. Following administration, approximately 110 μl of blood was taken via facial vein […] at 0.083, 0.25, 0.5, 1, 2, 4, 8, and 24 hours into K2EDTA tubes. Blood samples were placed on ice and centrifuged to obtain plasma samples (2000g, 5 min under 4°C). Plasma samples were stored at approximately −70°C until analysis. The XT17 concentration in plasma PK studies was measured by liquid chromatography–tandem mass spectrometry (LC-MS/MS) assay using an LC-MS/MS-22 (Triple Quad 6500) instrument. Plasma concentrations versus time data and PK parameters were estimated from noncompartmental analysis using WinNonlin 8.2.
# P. aeruginosa ATCC 9027 = assay: Murine corneal infection model; assay type: in vivo, mice; conditions: topical, 2 days; XT17 5 mg/ml, gatifloxacin 3 mg/ml; vs 5% glucose control
# Text: (§1) Female C57BL/6 mice (average weight, 20 g) were used for the in vivo efficacy experiments. Mice were housed in a specific pathogen–free facility on a 12-hour light-dark cycle, under the condition with ad libitum access to irradiation sterilized rodent diet and aseptic water. […]. These in vivo experiments were approved by the Experimental Animal Center of South China Agricultural University and conducted in accordance with the policies of the Ministry of Health of China.
# (§2) The in vivo efficacy of compound XT17 was investigated in a murine corneal infection model. Before infection, the mice were immunosuppressed with three intraperitoneal injections of cyclophosphamide (100 mg/kg) over 5 days. After anesthesia with 2.5% avertin (500 mg/kg, ip), the left corneas of mice were scratched with 15 μl of S. aureus ATCC 29213 or P. aeruginosa ATCC 9027 (approximately 5 × 10^7 CFU/ml). Following 1 day of infection, the infected mice were randomly assigned into […] (n = 5) and subsequently administered with 0.5% compound XT17, 5% glucose solution, 5% vancomycin, or 0.3% gatifloxacin topically. S. aureus–caused murine corneal infections were treated four times a day for three consecutive days. Only 2 days of treatment were given for P. aeruginosa–caused murine corneal infections. On the first day, the drug was administered every 20 min for 1 hour and then three times at 2-hour intervals on the second day. The mice were given a 5% glucose solution as a negative control in the absence of any antimicrobial agent treatment. The infected corneas were collected after the mice were euthanized, and the number of viable bacteria was counted using MHA plates.
# S. aureus ATCC 29213 = assay: Murine corneal infection model; assay type: in vivo, mice; conditions: topical, four times daily for 3 days; XT17 5 mg/ml, vancomycin 50 mg/ml; vs 5% glucose control
# Text: as §1, §2
# [2] = human, HepG2 cells, read-out: Viable cells (%) HepG2 cells
# [3] = mouse, NCTC clone 929 fibroblast cells, read-out: %Viable cells NCTC clone 929 cells
# [4] = male, CD-1, mouse, plasma, ip, 20 mg/kg, ip 20 mg/kg
# [5] = male, CD-1, mouse, plasma, iv, 5 mg/kg, IV 5 mg/kg
# [6] = male, CD-1, mouse, plasma, sc, 40 mg/kg, sc 40 mg/kg
# [7] = male, CD-1, mouse, plasma, IP 20 mg/kg
# [8] = male, CD-1, mouse, plasma, IV 5 mg/kg
# [9] = male, CD-1, mouse, plasma, SC 40 mg/kg
structure (smiles),measurement,setting,value
CC(C)=CCOc1cc(OCCCNC(=N)N)cc2oc3cc(OCCCNC(=N)N)ccc3c(=O)c12 [XT17],"viability at 24 h, 3.125 μg/ml",CCK-8 cytotoxicity assay; [2],105%
same,"viability at 24 h, 6.25 μg/ml",CCK-8 cytotoxicity assay; [2],110%
same,"viability at 24 h, 12.5 μg/ml",CCK-8 cytotoxicity assay; [2],104%
same,"viability at 24 h, 25 μg/ml",CCK-8 cytotoxicity assay; [2],83.9%
same,"viability at 24 h, 50 μg/ml",CCK-8 cytotoxicity assay; [2],62.2 ± 8.01%
same,"viability at 24 h, 100 μg/ml",CCK-8 cytotoxicity assay; [2],40.6%
same,"viability at 24 h, 3.125 μg/ml",CCK-8 cytotoxicity assay; [3],90%
same,"viability at 24 h, 6.25 μg/ml",CCK-8 cytotoxicity assay; [3],87.9%
same,"viability at 24 h, 12.5 μg/ml",CCK-8 cytotoxicity assay; [3],87.7%
same,"viability at 24 h, 25 μg/ml",CCK-8 cytotoxicity assay; [3],78.9 ± 3.46%
same,"viability at 24 h, 50 μg/ml",CCK-8 cytotoxicity assay; [3],51.6 ± 2.46%
same,"viability at 24 h, 100 μg/ml",CCK-8 cytotoxicity assay; [3],8.16%
same,SYTOX Green fluorescence intensity (cytoplasmic membrane permeabilization),E. coli ATCC 25922,did not show a notable increase
same,fluorescence emission of compound upon binding to LPS,LPS,decreased in a concentration-dependent manner
same,MRTIast,[1]; IP 20 mg/kg,1.08 h
same,Mean plasma concentration,"[1]; IP 20 mg/kg, 24 hr",BQL
same,Mean plasma concentration,"[1]; IV 5 mg/kg, 8 hr",BQL
same,Mean plasma concentration,"[1]; IV 5 mg/kg, 24 hr",BQL
same,MRTIast,[1]; SC 40 mg/kg,5.54 h
same,time blood concentrations maintained above MICs,[1]; iv single dose 5 mg/kg,more than 4 hours
same,bioavailability,"[1]; male, CD-1, mouse, plasma, intraperitoneal, ip 20 mg/kg vs iv 5 mg/kg",69.7%
same,Cmax,"[1]; male, CD-1, mouse, plasma, ip, 20 mg/kg, IP 20 mg/kg",18400 ng/mL
same,Cmax,[1]; [4],18400 ng/mL
same,half-life,[1]; [4],1.02 h
same,clearance,[1]; [5],9.68 mL/min/kg
same,half-life,[1]; [5],0.478 h
same,half-life,"[1]; male, CD-1, mouse, plasma, iv, 5 mg/kg, iv 5 mg/kg",0.48 h
same,Cmax,"[1]; male, CD-1, mouse, plasma, iv, 5 mg/kg, iv 5 mg/kg, for bolus iv Cmax = C0",20300 ng/mL
same,Cmax,"[1]; male, CD-1, mouse, plasma, sc, 40 mg/kg, SC 40 mg/kg",8680 ng/mL
same,Cmax,[1]; [6],8680 ng/mL
same,half-life,[1]; [6],4.68 h
same,bioavailability,"[1]; male, CD-1, mouse, plasma, subcutaneous, sc 40 mg/kg vs iv 5 mg/kg",87.3%
same,AUC(0-inf),[1]; [7],24000 ng·h/mL
same,AUC(0-t),[1]; [7],23900 ng·h/mL
same,MRT inf,[1]; [7],1.13 h
same,Tmax,[1]; [7],0.25 h
same,concentration at 0.083 h,[1]; [7],17500 ng/mL
same,concentration at 0.25 h,[1]; [7],18400 ng/mL
same,concentration at 0.5 h,[1]; [7],14100 ng/mL
same,concentration at 1 h,[1]; [7],9190 ng/mL
same,concentration at 2 h,[1]; [7],2770 ng/mL
same,concentration at 4 h,[1]; [7],452 ng/mL
same,concentration at 8 h,"[1]; male, CD-1, mouse, plasma, IP 20 mg/kg, 8 hr",90.1 ng/mL
same,AUC(0-inf),[1]; [8],8610 ng·h/mL
same,AUC(0-t),[1]; [8],8590 ng·h/mL
same,MRT inf,[1]; [8],0.42 h
same,MRT last,[1]; [8],0.412 h
same,concentration at 0.083 h,[1]; [8],20300 ng/mL
same,concentration at 0.25 h,[1]; [8],7360 ng/mL
same,concentration at 0.5 h,[1]; [8],3630 ng/mL
same,concentration at 1 h,[1]; [8],1770 ng/mL
same,concentration at 2 h,[1]; [8],282 ng/mL
same,concentration at 4 h,[1]; [8],23.3 ng/mL
same,Vd,"[1]; male, CD-1, mouse, plasma, IV 5 mg/kg, read-out: Vss",0.244 L/kg
same,AUC(0-inf),[1]; [9],60100 ng·h/mL
same,AUC(0-t),[1]; [9],58800 ng·h/mL
same,MRT inf,[1]; [9],6.07 h
same,Tmax,[1]; [9],1 h
same,concentration at 0.083 h,[1]; [9],7730 ng/mL
same,concentration at 0.25 h,[1]; [9],6690 ng/mL
same,concentration at 0.5 h,[1]; [9],7340 ng/mL
same,concentration at 1 h,[1]; [9],8680 ng/mL
same,concentration at 2 h,[1]; [9],4620 ng/mL
same,concentration at 4 h,[1]; [9],3560 ng/mL
same,concentration at 8 h,"[1]; male, CD-1, mouse, plasma, SC 40 mg/kg, 8 hr",2810 ng/mL
same,concentration at 24 h,"[1]; male, CD-1, mouse, plasma, SC 40 mg/kg, 24 hr",188 ng/mL
same,time blood concentrations maintained above MICs,[1]; sc single dose 40 mg/kg,more than 8 hours
same,log reduction in viable bacterial colonies in the infected corneas,P. aeruginosa ATCC 9027,2.88 log
same,log reduction in viable bacterial colonies in the infected corneas,S. aureus ATCC 29213,6.10 log
